Assay results as given in patent US9453026B2, “ACC inhibitors and uses thereof” (Gilead Apollo, Inc., priority 2011, dated 2016).

biological target: ACC2 (Homo sapiens, UniProt O00763); experiment: In vitro ACC2 inhibition assay (ADP-Glo); assay type: biochemical; details: read-out: ACC2
Protocol: An exemplary procedure for the in vitro ACC inhibition assay, which can be used to determine the inhibitory action of compounds of the invention toward either ACC1 or ACC2, follows. The ADP-Glo™ Kinase Assay kit from Promega was used. The ADP-Glo™ Kinase Assay is a luminescent ADP detection assay to measure enzymatic activity by quantifying the amount of ADP produced during an enzyme reaction. The assay is performed in two steps; first, after the enzyme reaction, an equal volume of ADP-Glo™ Reagent is added to terminate the reaction and deplete the remaining ATP. Second, the Kinase Detection Reagent is added to simultaneously convert ADP to ATP and allow the newly synthesized ATP to be measured using a luciferase/luciferin reaction. Luminescence can be correlated to ADP concentrations by using an ATP-to-ADP conversion curve. The detailed procedure is as follows. 50 μL of the compound being tested (600 uM in DMSO) was added to a 384-well dilution plate. The compound was diluted 1:3 in succession in DMSO for each row for 11 wells. 0.5 μL ACC2 working solution was added to 384-well white Optiplate assay plate. 0.5 μL diluted compound solution in each column from step 2 to assay plate, each row containing 2 replicates. […] The plates were incubated at room temperature for 15 minutes. 5 μL substrate working solution was added to each well to initiate reaction. […] Plates were incubated at room temperature for 60 minutes. 10 μL ADP glo reagent was added. Plates were incubated at room temperature for 40 minutes. 20 μL kinase detection reagent was added.
Data for each concentration, as well as the positive and negative controls were averaged, and the standard deviation calculated. Percent inhibition was calculated by the formula: 100× (average negative control−compound)/(average negative control−average positive control). The IC50 for each compound was calculated by fitting the data with a non-linear regression equation: Y=Bottom+(Top-Bottom)/(1+10^((Log IC50−X)*HillSlope)), where X is the log of compound concentration and Y is percent inhibition.
The compound numbers correspond to the compound numbers in Table 1.

Sequence of ACC2 (O00763 whole entry, species assumed): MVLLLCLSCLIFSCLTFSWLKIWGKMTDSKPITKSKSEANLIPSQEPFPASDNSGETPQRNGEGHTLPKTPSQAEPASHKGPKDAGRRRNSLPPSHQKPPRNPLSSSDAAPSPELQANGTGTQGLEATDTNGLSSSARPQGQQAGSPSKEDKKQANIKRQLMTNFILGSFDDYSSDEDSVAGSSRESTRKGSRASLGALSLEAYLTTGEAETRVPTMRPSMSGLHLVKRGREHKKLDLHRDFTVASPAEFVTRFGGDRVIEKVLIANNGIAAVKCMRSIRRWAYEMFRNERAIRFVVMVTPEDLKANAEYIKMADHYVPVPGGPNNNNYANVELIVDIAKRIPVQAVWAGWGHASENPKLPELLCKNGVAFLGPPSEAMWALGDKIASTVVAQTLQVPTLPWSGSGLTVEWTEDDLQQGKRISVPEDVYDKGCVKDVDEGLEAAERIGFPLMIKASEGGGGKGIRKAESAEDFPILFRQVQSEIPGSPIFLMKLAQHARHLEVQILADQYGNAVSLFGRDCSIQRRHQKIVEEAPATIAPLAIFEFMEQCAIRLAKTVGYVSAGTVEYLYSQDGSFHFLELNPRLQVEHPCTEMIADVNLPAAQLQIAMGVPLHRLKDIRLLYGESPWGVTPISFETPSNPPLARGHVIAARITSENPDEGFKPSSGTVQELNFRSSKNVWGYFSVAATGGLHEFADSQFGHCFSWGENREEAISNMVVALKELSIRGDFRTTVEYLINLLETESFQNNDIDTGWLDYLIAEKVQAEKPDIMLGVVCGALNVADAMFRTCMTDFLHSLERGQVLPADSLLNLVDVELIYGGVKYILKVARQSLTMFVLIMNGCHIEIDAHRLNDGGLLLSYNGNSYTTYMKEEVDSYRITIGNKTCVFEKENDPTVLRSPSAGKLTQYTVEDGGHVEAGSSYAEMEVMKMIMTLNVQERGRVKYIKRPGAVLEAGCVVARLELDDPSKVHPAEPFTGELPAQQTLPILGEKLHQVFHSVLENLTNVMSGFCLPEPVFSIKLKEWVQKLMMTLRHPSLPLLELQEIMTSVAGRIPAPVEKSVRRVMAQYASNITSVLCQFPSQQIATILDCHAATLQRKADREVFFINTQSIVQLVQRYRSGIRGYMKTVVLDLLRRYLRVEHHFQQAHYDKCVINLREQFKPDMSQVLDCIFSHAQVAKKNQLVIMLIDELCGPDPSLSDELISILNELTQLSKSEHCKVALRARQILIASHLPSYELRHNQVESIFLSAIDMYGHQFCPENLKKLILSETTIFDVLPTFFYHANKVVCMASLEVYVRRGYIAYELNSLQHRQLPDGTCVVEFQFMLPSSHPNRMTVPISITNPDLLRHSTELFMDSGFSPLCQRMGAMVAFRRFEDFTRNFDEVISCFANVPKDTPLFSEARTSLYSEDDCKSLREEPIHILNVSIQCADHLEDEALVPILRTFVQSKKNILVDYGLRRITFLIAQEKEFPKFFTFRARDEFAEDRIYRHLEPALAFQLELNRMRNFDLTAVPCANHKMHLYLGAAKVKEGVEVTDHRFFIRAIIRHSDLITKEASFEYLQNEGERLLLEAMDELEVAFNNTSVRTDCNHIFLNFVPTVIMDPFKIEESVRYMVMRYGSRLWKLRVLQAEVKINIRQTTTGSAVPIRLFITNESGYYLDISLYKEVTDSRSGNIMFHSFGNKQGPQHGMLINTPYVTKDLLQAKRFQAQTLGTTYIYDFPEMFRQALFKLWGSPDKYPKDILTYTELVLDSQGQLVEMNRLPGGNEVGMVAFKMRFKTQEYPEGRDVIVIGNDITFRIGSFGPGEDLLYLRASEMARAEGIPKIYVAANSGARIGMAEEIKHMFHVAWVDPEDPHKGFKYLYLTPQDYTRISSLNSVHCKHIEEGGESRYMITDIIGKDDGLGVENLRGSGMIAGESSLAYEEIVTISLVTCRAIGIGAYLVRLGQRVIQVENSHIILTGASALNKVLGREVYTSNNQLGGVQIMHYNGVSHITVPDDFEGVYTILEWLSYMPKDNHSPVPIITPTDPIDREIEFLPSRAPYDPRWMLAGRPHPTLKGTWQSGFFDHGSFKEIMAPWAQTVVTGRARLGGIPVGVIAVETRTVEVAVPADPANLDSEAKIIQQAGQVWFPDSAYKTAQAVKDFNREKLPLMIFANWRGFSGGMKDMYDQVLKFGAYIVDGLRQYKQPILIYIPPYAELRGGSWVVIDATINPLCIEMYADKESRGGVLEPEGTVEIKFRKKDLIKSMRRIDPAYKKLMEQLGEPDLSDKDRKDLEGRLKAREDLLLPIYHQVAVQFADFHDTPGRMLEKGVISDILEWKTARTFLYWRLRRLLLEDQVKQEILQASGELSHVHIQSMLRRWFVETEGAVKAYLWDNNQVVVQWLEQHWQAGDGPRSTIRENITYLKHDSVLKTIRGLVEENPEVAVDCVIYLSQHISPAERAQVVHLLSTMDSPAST

IC50, < 0.1 µM:
CCOc1ccccc1[C@H](Cn1c(=O)n(C(C)(C)C(=O)O)c(=O)c2c(C)c(-c3ncco3)sc21)OC1CCOCC1 [I-183, 2-[1-[(2R)-2-(2-ethoxyphenyl)-2-(oxan-4-yloxy)ethyl]-5-methyl-6-(1,3-oxazol-2-yl)-2,4-dioxo-1H,2H,3H,4H-thieno[2,3-d]pyrimidin-3-yl]-2-methylpropanoic acid]

IC50, 20 to 50 µM:
Cc1c(-n2cncn2)sc2c1c(=O)n(C(C)(C)C(=O)O)c(=O)n2C[C@H](OC(C)C)c1ccccc1 [I-157, 2-methyl-2-[5-methyl-2,4-dioxo-1-[(2R)-2-phenyl-2-(propan-2-yloxy)ethyl]-6-(1H-1,2,4-triazol-1-yl)-1H,2H,3H,4H-thieno[2,3-d]pyrimidin-3-yl]propanoic acid]
CCOC(=O)c1sc2c(c1C)c(=O)n(CCO)c(=O)n2CCc1ccccc1F [I-23, ethyl 1-[2-(2-fluorophenyl)ethyl]-3-(2-hydroxyethyl)-5-methyl-2,4-dioxo-1H,2H,3H,4H-thieno[2,3-d]pyrimidine-6-carboxylate]
CCOC(=O)c1sc2c(c1C)c(=O)n(CC(N)=O)c(=O)n2C[C@@H](OC(C)C)c1ccccc1 [I-113, ethyl 3-(carbamoylmethyl)-5-methyl-2,4-dioxo-1-[(2S)-2-phenyl-2-(propan-2-yloxy)ethyl]-1H,2H,3H,4H-thieno[2,3-d]pyrimidine-6-carboxylate]
COCc1sc2c(c1C)c(=O)n(CCO)c(=O)n2CCc1ccccc1 [I-39, 3-(2-hydroxyethyl)-6-(methoxymethyl)-5-methyl-1-(2-phenylethyl)-1H,2H,3H,4H-thieno[2,3-d]pyrimidine-2,4-dione]

IC50, < 5 µM:
Cc1c(-c2ncco2)sc2c1c(=O)n(C(C)(C)C(=O)O)c(=O)n2C[C@@H](OC1CCOCC1)c1ccccc1Cl [I-251, 2-[1-[(2S)-2-(2-chlorophenyl)-2-(oxan-4-yloxy)ethyl]-5-methyl-6-(1,3-oxazol-2-yl)-2,4-dioxo-1H,2H,3H,4H-thieno[2,3-d]pyrimidin-3-yl]-2-methylpropanoic acid]
COc1ccccc1[C@H](Cn1c(=O)n(C(C)(C)C(=O)NCCO)c(=O)c2c(C)c(-c3ncco3)sc21)OC(C)C [I-257, N-(2-hydroxyethyl)-2-[1-[(2R)-2-(2-methoxyphenyl)-2-(propan-2-yloxy)ethyl]-5-methyl-6-(1,3-oxazol-2-yl)-2,4-dioxo-1H,2H,3H,4H-thieno[2,3-d]pyrimidin-3-yl]-2-methylpropanamide]
CCOC(=O)c1sc2c(c1C)c(=O)n(C(C)C(N)=O)c(=O)n2CCc1ccccc1 (stereo not shown) [I-69, ethyl 3-(1-carbamoylethyl)-5-methyl-2,4-dioxo-1-(2-phenylethyl)-1H,2H,3H,4H-thieno[2,3-d]pyrimidine-6-carboxylate]
Cc1c(-c2ncco2)sc2c1c(=O)n(C(C)(C)C(=O)O)c(=O)n2C[C@H](OC[C@H](C)O)c1ccccc1 [I-178, 2-[1-[(2R)-2-[(2S)-2-hydroxypropoxy]-2-phenylethyl]-5-methyl-6-(1,3-oxazol-2-yl)-2,4-dioxo-1H,2H,3H,4H-thieno[2,3-d]pyrimidin-3-yl]-2-methylpropanoic acid]
CCOC(=O)c1sc2c(c1C)c(=O)n([C@H](C)C(=O)O)c(=O)n2CCc1ccccc1 [I-76, (2R)-2-[6-(ethoxycarbonyl)-5-methyl-2,4-dioxo-1-(2-phenylethyl)-1H,2H,3H,4H-thieno[2,3-d]pyrimidin-3-yl]propanoic acid]
CCOC(=O)c1sc2c(c1C)c(=O)n(C(C)(C)C(=O)O)c(=O)n2CCc1ccccc1OC(F)(F)F [I-106, 2-[6-(ethoxycarbonyl)-5-methyl-2,4-dioxo-1-[2-[2-(trifluoromethoxy)phenyl]ethyl]-1H,2H,3H,4H-thieno[2,3-d]pyrimidin-3-yl]-2-methylpropanoic acid]
CCOC(=O)c1sc2c(c1C(F)(F)F)c(=O)n(CC(=O)O)c(=O)n2CCc1ccccc1 [I-94, 2-[6-(ethoxycarbonyl)-2,4-dioxo-1-(2-phenylethyl)-5-(trifluoromethyl)-1H,2H,3H,4H-thieno[2,3-d]pyrimidin-3-yl]acetic acid]
COc1ccccc1[C@H](Cn1c(=O)n(C(C)(C)C(=O)O)c(=O)c2c(C)c(-c3ncco3)sc21)OC1COC1 [I-261, (R)-2-(1-(2-(2-methoxyphenyl)-2-(oxetan-3-yloxy)ethyl)-5-methyl-6-(oxazol-2-yl)-2,4-dioxo-1,2-dihydrothieno[2,3-d]pyrimidin-3(4H)-yl)-2-methylpropanoic acid]

IC50, < 1 µM:
Cc1c(-c2ncco2)sc2c1c(=O)n(C(C)(C)C#N)c(=O)n2C[C@H](OC(C)C)c1ccccc1 [I-154, 2-methyl-2-[5-methyl-6-(1,3-oxazol-2-yl)-2,4-dioxo-1-[(2R)-2-phenyl-2-(propan-2-yloxy)ethyl]-1H,2H,3H,4H-thieno[2,3-d]pyrimidin-3-yl]propanenitrile]
Cc1c(-c2ncco2)sc2c1c(=O)n(Cc1nn[nH]n1)c(=O)n2C[C@H](OC(C)C)c1ccccc1 [I-153, 5-methyl-6-(1,3-oxazol-2-yl)-1-[(2R)-2-phenyl-2-(propan-2-yloxy)ethyl]-3-(1H-1,2,3,4-tetrazol-5-ylmethyl)-1H,2H,3H,4H-thieno[2,3-d]pyrimidine-2,4-dione]
Cc1c(-c2ncco2)sc2c1c(=O)n(C(C)(C)C(=O)O)c(=O)n2C[C@H](OCC1CCCO1)c1ccccc1 (stereo partly drawn) [I-146, 2-methyl-2-[5-methyl-6-(1,3-oxazol-2-yl)-2,4-dioxo-1-[(2R)-2-(oxolan-2-ylmethoxy)-2-phenylethyl]-1H,2H,3H,4H-thieno[2,3-d]pyrimidin-3-yl]propanoic acid]

IC50, > 50 µM:
CCOC(=O)c1sc2c(c1C)c(=O)n(CCO)c(=O)n2Cc1cccc2ccccc12 [I-15]
CCNC(=O)c1sc2c(c1C)c(=O)n(CCO)c(=O)n2CCc1ccccc1 [I-18]
CCOC(=O)c1sc2c(c1C)c(=O)n(CCO)c(=O)n2CCc1cccc2ccccc12 [I-22]
CCOC(=O)c1sc2c(c1C)c(=O)n(CCO)c(=O)n2CCc1nccs1 [I-49]
Cc1c(C(N)=O)sc2c1c(=O)n(CCO)c(=O)n2CCc1ccccc1 [I-47]
Cc1c(C(N)=O)sc2c1c(=O)n(CC(=O)O)c(=O)n2CCc1ccccc1 [I-71, 2-[6-carbamoyl-5-methyl-2,4-dioxo-1-(2-phenylethyl)-1H,2H,3H,4H-thieno[2,3-d]pyrimidin-3-yl]acetic acid]
CCOC(=O)c1sc2c(c1C)c(=O)n(CC(=O)O)c(=O)n2CCc1nc2ccccc2s1 [I-84, 2-[1-[2-(1,3-benzothiazol-2-yl)ethyl]-6-(ethoxycarbonyl)-5-methyl-2,4-dioxo-1H,2H,3H,4H-thieno[2,3-d]pyrimidin-3-yl]acetic acid]
CCOC(=O)c1sc2c(c1C)c(=O)n(CCO)c(=O)n2CCc1cccc(Cl)c1 [I-21]
CCOC(=O)c1sc2c(c1C)c(=O)n(CC)c(=O)n2CCc1ccccc1 [I-7, ethyl 3-ethyl-5-methyl-2,4-dioxo-1-(2-phenylethyl)-1H,2H,3H,4H-thieno[2,3-d]pyrimidine-6-carboxylate]

IC50, 5 to 20 µM:
CCOC(=O)c1sc2c(c1C)c(=O)n(C(C)(C)C(=O)O)c(=O)n2C[C@@H](OC(C)C)c1ccccc1 [I-109, 2-[6-(ethoxycarbonyl)-5-methyl-2,4-dioxo-1-[(2S)-2-phenyl-2-(propan-2-yloxy)ethyl]-1H,2H,3H,4H-thieno[2,3-d]pyrimidin-3-yl]-2-methylpropanoic acid]
CCOC(=O)c1cc2c(=O)n(CC(=O)O)c(=O)n(CCc3ccccc3)c2s1 [I-91, 2-[6-(ethoxycarbonyl)-2,4-dioxo-1-(2-phenylethyl)-1H,2H,3H,4H-thieno[2,3-d]pyrimidin-3-yl]acetic acid]
CCOC(=O)c1sc2c(c1C)c(=O)n(CC(=O)OC(C)(C)C)c(=O)n2CCc1ccccc1 [I-8]
CCOC(=O)c1sc2c(c1C)c(=O)n(CC(=O)O)c(=O)n2Cc1ccc2ccn(C)c2c1 [I-74, 2-[6-(ethoxycarbonyl)-5-methyl-1-[(1-methyl-1H-indol-6-yl)methyl]-2,4-dioxo-1H,2H,3H,4H-thieno[2,3-d]pyrimidin-3-yl]acetic acid]
COCc1sc2c(c1C)c(=O)n(CC(=O)O)c(=O)n2CCc1ccccc1 [I-75, 2-[6-(methoxymethyl)-5-methyl-2,4-dioxo-1-(2-phenylethyl)-1H,2H,3H,4H-thieno[2,3-d]pyrimidin-3-yl]acetic acid]
Cc1c(-c2ncco2)sc2c1c(=O)n(C(C)(C)C(=O)O)c(=O)n2C[C@@H](Oc1ccccc1)c1ccccc1 [I-144, 2-methyl-2-[5-methyl-6-(1,3-oxazol-2-yl)-2,4-dioxo-1-[(2S)-2-phenoxy-2-phenylethyl]-1H,2H,3H,4H-thieno[2,3-d]pyrimidin-3-yl]propanoic acid]
